# According to ChEMBL document CHEMBL2390827, “Ligand-based design, synthesis, and experimental evaluation of novel benzofuroxan derivatives as anti-Trypanosoma cruzi agents” (Eur J Med Chem, 2013):
# pIC50: −log10 of the molar value. The source made the active and inactive calls. No cut-off for these calls is given here.
# Legend:
# Trypanosoma cruzi = test: Antitrypanosomal activity against epimastigote stage of Trypanosoma cruzi Y assessed as parasite growth inhibition after 5 days by spectrophotometric analysis; assay type: functional
# [1] = Selectivity index, ratio of IC50 for human fibroblasts to GI50 for epimastigote stage of Trypanosoma cruzi Y
# [2] = Cytotoxicity against human fibroblasts assessed as growth inhibition after 24 hrs by MTT assay; assay type: cell-based; conditions: Fibroblast
Compound,log1/GI50 (Trypanosoma cruzi),"GI50 (Trypanosoma cruzi; Trypanosoma cruzi, Y, 120 h)",Selectivity Index [1],pIC50 [2],GI50 (Trypanosoma cruzi)
COc1ccc(C(=O)N/N=C/c2ccc3c(c2)no[n+]3[O-])cc1,4.88,13.2 µM,,,
CCCc1ccc(C(=O)N/N=C/c2ccc3c(c2)no[n+]3[O-])cc1,5.52,3.04 µM,>65.79,< 3.70,
CCCCOc1ccc(C(=O)N/N=C/c2ccc3c(c2)no[n+]3[O-])cc1,5.24,5.78 µM,>34.6,< 3.70,
O=C(N/N=C/c1ccc2c(c1)no[n+]2[O-])c1ccc(Cl)cc1Cl,5.02,9.54 µM,4.01,4.42,
O=C(N/N=C/c1ccc2c(c1)no[n+]2[O-])c1ccc(Cl)c(Cl)c1,5.04,9.07 µM,7.17,4.19,
N#Cc1ccc(C(=O)N/N=C/c2ccc3c(c2)no[n+]3[O-])cc1,4.58,26.6 µM,,,
CC(C)(C)c1ccc(C(=O)N/N=C/c2ccc3c(c2)no[n+]3[O-])cc1,5.24,5.45 µM,>36.7,< 3.70,
CCCOc1ccc(C(=O)N/N=C/c2ccc3c(c2)no[n+]3[O-])cc1,5.39,4.07 µM,>49.14,< 3.70,
O=C(N/N=C/c1ccc2c(c1)no[n+]2[O-])c1ccc(F)cc1,4.82,15.3 µM,,,
O=C(N/N=C/c1ccc2c(c1)no[n+]2[O-])c1ccc(Br)cc1,5.11,7.78 µM,>25.71,< 3.70,
O=C(N/N=C/c1ccc2c(c1)no[n+]2[O-])c1ccc(C(F)(F)F)cc1,5.02,9.62 µM,,,
O=C(N/N=C/c1ccc2c(c1)no[n+]2[O-])c1ccc(Cl)cc1,5,9.96 µM,,,
CC(C)c1ccc(C(=O)N/N=C/c2ccc3c(c2)no[n+]3[O-])cc1,5.15,7.12 µM,>28.09,< 3.70,
O=C(N/N=C/c1ccc2c(c1)no[n+]2[O-])c1ccc(O)cc1,,,,,inactive
O=C(N/N=C/c1ccc2c(c1)no[n+]2[O-])c1ccc(I)cc1,5.21,6.11 µM,>32.73,< 3.70,
NS(=O)(=O)c1ccc(C(=O)N/N=C/c2ccc3c(c2)no[n+]3[O-])cc1,4.22,60.4 µM,0.99,4.22,
Cc1ccc(C(=O)N/N=C/c2ccc3c(c2)no[n+]3[O-])cc1,4.93,11.9 µM,,,
CC(=O)c1ccc(C(=O)N/N=C/c2ccc3c(c2)no[n+]3[O-])cc1,4.8,16 µM,,,
O=C(N/N=C/c1ccc2c(c1)no[n+]2[O-])c1ccc([N+](=O)[O-])cc1,4.75,17.8 µM,,,
CC1CS(=O)(=O)CCN1/N=C/c1ccc([N+](=O)[O-])o1 (stereo unspecified) [NIFURTIMOX],5.42,3.78 µM,>52.91,< 3.70,
CCOc1ccc(C(=O)N/N=C/c2ccc3c(c2)no[n+]3[O-])cc1,5.02,9.62 µM,,,
O=C(N/N=C/c1ccc2c(c1)no[n+]2[O-])c1ccccc1,4.77,16.9 µM,,,
O=C(Cn1ccnc1[N+](=O)[O-])NCc1ccccc1 [BENZNIDAZOLE],4.68,22.7 µM,>9.6,< 3.70,
Nc1ccc(C(=O)N/N=C/c2ccc3c(c2)no[n+]3[O-])cc1,3.93,117 µM,1.71,< 3.70,
O=C(N/N=C/c1ccc([N+](=O)[O-])o1)c1ccc(O)cc1 [NIFUROXAZIDE],3.92,120 µM,0.64,4.11,
CN(C)c1ccc(C(=O)N/N=C/c2ccc3c(c2)no[n+]3[O-])cc1,,,,,inactive
CCc1ccc(C(=O)N/N=C/c2ccc3c(c2)no[n+]3[O-])cc1,5,9.91 µM,,,
O=C(N/N=C/c1ccc2c(c1)no[n+]2[O-])c1ccc([N+](=O)[O-])c(C(F)(F)F)c1,4.8,15.9 µM,,,
CCCCc1ccc(C(=O)N/N=C/c2ccc3c(c2)no[n+]3[O-])cc1,5.43,3.72 µM,>53.76,< 3.70,
